# Legend:
# Assay in all cases: Test E pre-/postemergence herbicide test
# [1] = tested on: quackgrass; format: in vivo, Elytrigia repens
# How it was run: (§1)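 Pre-/postemergence spray, solvent + surfactant vehicle; post timing 1- to 4-leaf stage (2–18 cm). Greenhouse 12–14 d. Visual score 0 (no effect) to 100 (complete control) relative to controls.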
# [2] = tested on: guineagrass; format: in vivo, Panicum maximum
# How it was run: as §1
# [3] = tested on: broadleaf signalgrass; format: in vivo, Brachiaria platyphylla
# How it was run: as §1
# [4] = tested on: common purslane; format: in vivo, Portulaca oleracea
# How it was run: as §1
# [5] = tested on: Surinam grass; format: in vivo, Urochloa decumbens
# How it was run: as §1
# [6] = tested on: itchgrass; format: in vivo, Rottboellia cochinchinensis
# How it was run: as §1
# [7] = tested on: bermudagrass; format: in vivo, Cynodon dactylon
# How it was run: as §1
# [8] = tested on: common groundsel; format: in vivo, Senecio vulgaris
# How it was run: as §1
# [9] = tested on: Canada horseweed; format: in vivo, Erigeron Canadensis
# How it was run: as §1
# [10] = tested on: Italian ryegrass; format: in vivo, Lolium multiflorum
# How it was run: as §1
# [11] = Postemergence, 500 g ai/ha, scale 0 to 100
# [12] = Postemergence, 250 g ai/ha, scale 0 to 100
# [13] = Preemergence, 62 g ai/ha, scale 0 to 100
# [14] = Preemergence, 125 g ai/ha, scale 0 to 100
# [15] = Preemergence, 250 g ai/ha, scale 0 (no effect) to 100 (complete control)
# [16] = Preemergence, 500 g ai/ha, scale 0 (no effect) to 100 (complete control)
# [17] = postemergence, 125 g ai/ha, scale 0 to 100
# [18] = postemergence, 62 g ai/ha, scale 0 to 100
structure (smiles),measurement,setting,value
CCNC(=O)c1ccc(F)c(NC(=O)c2cn(C(C)(C)C)nc2CC)c1 [Compound 193],"Plant response rating, Quackgrass",[1]; [11],80
same,"Plant response rating, Quackgrass",[1]; [12],80
same,"Plant response rating, Quackgrass",[1]; [13],10
same,"Plant response rating, Quackgrass",[1]; [14],60
same,"Plant response rating, Quackgrass",[1]; [15],70
same,"Plant response rating, Quackgrass",[1]; [16],95
same,"Plant response rating, Quackgrass",[1]; [17],70
same,"Plant response rating, Quackgrass",[1]; [18],0
same,"Plant response rating, Guineagrass",[2]; [11],100
same,"Plant response rating, Guineagrass",[2]; [12],70
same,"Plant response rating, Guineagrass",[2]; [13],60
same,"Plant response rating, Guineagrass",[2]; [14],70
same,"Plant response rating, Guineagrass",[2]; [15],100
same,"Plant response rating, Guineagrass",[2]; [16],100
same,"Plant response rating, Guineagrass",[2]; [17],60
same,"Plant response rating, Guineagrass",[2]; [18],20
same,"Plant response rating, Signalgrass",[3]; [11],80
same,"Plant response rating, Signalgrass",[3]; [12],75
same,"Plant response rating, Signalgrass",[3]; [13],10
same,"Plant response rating, Signalgrass",[3]; [14],60
same,"Plant response rating, Signalgrass",[3]; [15],70
same,"Plant response rating, Signalgrass",[3]; [16],95
same,"Plant response rating, Signalgrass",[3]; [17],50
same,"Plant response rating, Signalgrass",[3]; [18],10
same,"Plant response rating, Purslane",[4]; [11],85
same,"Plant response rating, Purslane",[4]; [12],60
same,"Plant response rating, Purslane",[4]; [14],60
same,"Plant response rating, Purslane",[4]; [15],100
same,"Plant response rating, Purslane",[4]; [16],100
same,"Plant response rating, Purslane",[4]; [17],60
same,"Plant response rating, Purslane",[4]; [18],20
same,"Plant response rating, Surinam Grass",[5]; [11],90
same,"Plant response rating, Surinam Grass",[5]; [12],85
same,"Plant response rating, Surinam Grass",[5]; [14],80
same,"Plant response rating, Surinam Grass",[5]; [16],100
same,"Plant response rating, Surinam Grass",[5]; [17],70
same,"Plant response rating, Surinam Grass",[5]; [18],10
same,"Plant response rating, Itchgrass",[6]; [11],75
same,"Plant response rating, Itchgrass",[6]; [12],60
same,"Plant response rating, Itchgrass",[6]; [13],20
same,"Plant response rating, Itchgrass",[6]; [14],70
same,"Plant response rating, Itchgrass",[6]; [15],80
same,"Plant response rating, Itchgrass",[6]; [16],100
same,"Plant response rating, Itchgrass",[6]; [17],60
same,"Plant response rating, Itchgrass",[6]; [18],30
same,"Plant response rating, Bermudagrass",[7]; [11],95
same,"Plant response rating, Bermudagrass",[7]; [12],90
same,"Plant response rating, Bermudagrass",[7]; [13],85
same,"Plant response rating, Bermudagrass",[7]; [14],100
same,"Plant response rating, Bermudagrass",[7]; [15],100
same,"Plant response rating, Bermudagrass",[7]; [16],100
same,"Plant response rating, Bermudagrass",[7]; [17],90
same,"Plant response rating, Bermudagrass",[7]; [18],60
same,"Plant response rating, Groundsel",[8]; [11],100
same,"Plant response rating, Groundsel",[8]; [12],70
same,"Plant response rating, Groundsel",[8]; [13],20
same,"Plant response rating, Groundsel",[8]; [14],100
same,"Plant response rating, Groundsel",[8]; [15],100
same,"Plant response rating, Groundsel",[8]; [16],100
same,"Plant response rating, Groundsel",[8]; [17],40
same,"Plant response rating, Groundsel",[8]; [18],20
same,"Plant response rating, Horseweed",[9]; [11],90
same,"Plant response rating, Horseweed",[9]; [12],70
same,"Plant response rating, Horseweed",[9]; [13],80
same,"Plant response rating, Horseweed",[9]; [14],100
same,"Plant response rating, Horseweed",[9]; [15],100
same,"Plant response rating, Horseweed",[9]; [16],100
same,"Plant response rating, Horseweed",[9]; [17],50
same,"Plant response rating, Horseweed",[9]; [18],50
same,"Plant response rating, Ryegrass, Italian",[10]; [11],95
same,"Plant response rating, Ryegrass, Italian",[10]; [12],95
same,"Plant response rating, Ryegrass, Italian",[10]; [13],20
same,"Plant response rating, Ryegrass, Italian",[10]; [14],90
same,"Plant response rating, Ryegrass, Italian",[10]; [15],100
same,"Plant response rating, Ryegrass, Italian",[10]; [16],100
same,"Plant response rating, Ryegrass, Italian",[10]; [17],60
same,"Plant response rating, Ryegrass, Italian",[10]; [18],30
"CCn1nc(C(C)(C)C)cc1C(=O)Nc1cc(C(=O)N(C)C)ccn1 [Compound 156, 2-[[[3-(1,1-dimethylethyl)-1-ethyl-1H-pyrazol-5-yl]carbonyl]amino]-N,N-dimethyl-4-pyridinecarboxamide]","Plant response rating, Quackgrass",[1]; [11],98
same,"Plant response rating, Quackgrass",[1]; [12],95
same,"Plant response rating, Quackgrass",[1]; [13],50
same,"Plant response rating, Quackgrass",[1]; [14],90
same,"Plant response rating, Quackgrass",[1]; [15],95
same,"Plant response rating, Quackgrass",[1]; [16],100
same,"Plant response rating, Quackgrass",[1]; [17],95
same,"Plant response rating, Quackgrass",[1]; [18],75
same,"Plant response rating, Guineagrass",[2]; [11],98
same,"Plant response rating, Guineagrass",[2]; [12],95
same,"Plant response rating, Guineagrass",[2]; [13],90
same,"Plant response rating, Guineagrass",[2]; [14],100
same,"Plant response rating, Guineagrass",[2]; [15],100
same,"Plant response rating, Guineagrass",[2]; [16],100
same,"Plant response rating, Guineagrass",[2]; [17],90
same,"Plant response rating, Guineagrass",[2]; [18],60
same,"Plant response rating, Signalgrass",[3]; [11],98
same,"Plant response rating, Signalgrass",[3]; [12],95
same,"Plant response rating, Signalgrass",[3]; [13],85
same,"Plant response rating, Signalgrass",[3]; [15],90
same,"Plant response rating, Signalgrass",[3]; [16],95
same,"Plant response rating, Signalgrass",[3]; [17],85
same,"Plant response rating, Signalgrass",[3]; [18],40
same,"Plant response rating, Purslane",[4]; [11],100
same,"Plant response rating, Purslane",[4]; [12],100
same,"Plant response rating, Purslane",[4]; [13],100
same,"Plant response rating, Purslane",[4]; [14],100
same,"Plant response rating, Purslane",[4]; [15],100
same,"Plant response rating, Purslane",[4]; [16],100
same,"Plant response rating, Purslane",[4]; [17],100
same,"Plant response rating, Purslane",[4]; [18],75
same,"Plant response rating, Surinam Grass",[5]; [11],100
same,"Plant response rating, Surinam Grass",[5]; [12],98
same,"Plant response rating, Surinam Grass",[5]; [13],50
same,"Plant response rating, Surinam Grass",[5]; [14],75
same,"Plant response rating, Surinam Grass",[5]; [16],95
same,"Plant response rating, Surinam Grass",[5]; [17],95
same,"Plant response rating, Surinam Grass",[5]; [18],80
same,"Plant response rating, Itchgrass",[6]; [11],98
same,"Plant response rating, Itchgrass",[6]; [12],95
same,"Plant response rating, Itchgrass",[6]; [13],100
same,"Plant response rating, Itchgrass",[6]; [14],100
same,"Plant response rating, Itchgrass",[6]; [15],100
same,"Plant response rating, Itchgrass",[6]; [16],100
same,"Plant response rating, Itchgrass",[6]; [17],95
same,"Plant response rating, Itchgrass",[6]; [18],80
same,"Plant response rating, Bermudagrass",[7]; [11],98
same,"Plant response rating, Bermudagrass",[7]; [12],95
same,"Plant response rating, Bermudagrass",[7]; [13],95
same,"Plant response rating, Bermudagrass",[7]; [14],100
same,"Plant response rating, Bermudagrass",[7]; [15],100
same,"Plant response rating, Bermudagrass",[7]; [16],100
same,"Plant response rating, Bermudagrass",[7]; [17],95
same,"Plant response rating, Bermudagrass",[7]; [18],65
same,"Plant response rating, Groundsel",[8]; [11],100
same,"Plant response rating, Groundsel",[8]; [12],100
same,"Plant response rating, Groundsel",[8]; [13],100
same,"Plant response rating, Groundsel",[8]; [14],100
same,"Plant response rating, Groundsel",[8]; [15],100
same,"Plant response rating, Groundsel",[8]; [16],100
same,"Plant response rating, Groundsel",[8]; [17],100
same,"Plant response rating, Groundsel",[8]; [18],80
same,"Plant response rating, Horseweed",[9]; [11],100
same,"Plant response rating, Horseweed",[9]; [12],100
same,"Plant response rating, Horseweed",[9]; [13],95
same,"Plant response rating, Horseweed",[9]; [14],100
same,"Plant response rating, Horseweed",[9]; [15],100
same,"Plant response rating, Horseweed",[9]; [16],100
same,"Plant response rating, Ryegrass, Italian",[10]; [11],98
same,"Plant response rating, Ryegrass, Italian",[10]; [12],98
same,"Plant response rating, Ryegrass, Italian",[10]; [13],60
same,"Plant response rating, Ryegrass, Italian",[10]; [14],95
same,"Plant response rating, Ryegrass, Italian",[10]; [15],100
same,"Plant response rating, Ryegrass, Italian",[10]; [16],100
same,"Plant response rating, Ryegrass, Italian",[10]; [17],95
same,"Plant response rating, Ryegrass, Italian",[10]; [18],90

# — US20060069132A1, “Azolecarboxamide herbicides” (priority 2004, published 2006)
